Experiments:
CDK1/Cyclin B = molecular target: T1, CDK1/Cyclin B (Homo sapiens, UniProt P06493); assay: Enzymatic assay for CDK1 (FRET based LANCE Ultra kinase assay); format: biochemical; settings: read-out: CDK1 enzymatic activity (IC50 range)
T1 construct: purchased Invitrogen PR4768C
Procedure, shortened: (§1)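 LANCE Ultra TR-FRET: ULight-MBP peptide (68 nM) with ATP at Km, […], 60 min at 23° C. EDTA plus Eu-anti-phospho-MBP added, another 60 min, then 665/615 nm emission read. Compounds tested as 8-dose 4-fold DMSO dilutions.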

CDK2/Cyclin A = molecular target: T2, CDK2/Cyclin A (Homo sapiens, UniProt P24941); assay: Enzymatic assay for CDK2 (FRET based LANCE Ultra kinase assay); format: biochemical; settings: read-out: CDK2 enzymatic activity (IC50 range)
T2 construct: purchased Invitrogen PV6290
Procedure, shortened: as §1

CDK5/p25 = molecular target: T3, CDK5/p25 (Homo sapiens, UniProt Q00535); assay: Enzymatic assay for CDK5 (FRET based LANCE Ultra kinase assay); format: biochemical; settings: read-out: CDK5 enzymatic activity (IC50 range)
T3 construct: purchased Invitrogen PR8543B
Procedure, shortened: as §1

CDK7/Cyclin H/MNAT1 = molecular target: T4, CDK7/Cyclin H/MNAT1 (Homo sapiens, UniProt P50613); assay: Enzymatic assay for CDK7 (FRET based LANCE Ultra kinase assay); format: biochemical; settings: for IC50: read-out: CDK7 enzymatic activity (IC50 range)
T4 construct: purchased Invitrogen PR6749B
Procedure, shortened: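 Inhibition was measured at Km ATP by time-resolved FRET between a Eu anti-phospho antibody and a phosphorylated ULight peptide. The enzyme was the purified CDK7/cyclin complex, and data were curve-fitted.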

HCT116 = assay: Cellular HCT116 viability assay (CellTiter-Glo, 72 hours); format: cell-based; settings: Homo sapiens, HCT-116
Protocol: (§2) All cell lines were routinely tested for mycoplasma.
(§3) The effect of the CDK7 inhibitor to inhibit the growth of target cancer cells was evaluated through the 72 hours time period of viability assay. Briefly, the candidate cell line ware plated in 96 well plate at the following density of cells respectively. […] DMSO solvent without compound served as a control and final DMSO concentration less than 0.1%. After 72 hours of incubation at 37° C., 5% CO2 incubator, cells were analyzed for the viability using the CellTiter-Glo Luminescent Cell Viability Assay (Promega, Cat #G7570). All viability assays were performed in duplicate and Luminescence was read using an Envision (Perkin Elmer, USA). Data was analyzed using XLfit software.

H460 = assay: Cellular H460 viability assay (CellTiter-Glo, 72 hours); format: cell-based; settings: Homo sapiens, NCI-H460
Procedure, shortened: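 CellTiter-Glo luminescence read in duplicate after 72 h compound exposure (37 °C, 5% CO2); DMSO-only control, final DMSO under 0.1%.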

MV4-11 = assay: Cellular MV4-11 viability assay (CellTiter-Glo, 72 hours); format: cell-based; settings: Homo sapiens
Protocol: as §2, §3

T3 sequence (Q00535 whole entry): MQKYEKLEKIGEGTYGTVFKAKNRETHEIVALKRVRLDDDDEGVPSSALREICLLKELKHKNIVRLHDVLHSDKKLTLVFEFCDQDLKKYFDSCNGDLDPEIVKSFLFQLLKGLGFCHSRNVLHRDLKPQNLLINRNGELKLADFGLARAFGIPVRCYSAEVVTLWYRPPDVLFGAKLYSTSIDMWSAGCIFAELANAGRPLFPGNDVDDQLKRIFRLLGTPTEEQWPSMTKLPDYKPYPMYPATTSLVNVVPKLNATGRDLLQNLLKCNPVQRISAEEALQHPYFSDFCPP
T3 sequence (Q15078 99-307 partner limits assumed): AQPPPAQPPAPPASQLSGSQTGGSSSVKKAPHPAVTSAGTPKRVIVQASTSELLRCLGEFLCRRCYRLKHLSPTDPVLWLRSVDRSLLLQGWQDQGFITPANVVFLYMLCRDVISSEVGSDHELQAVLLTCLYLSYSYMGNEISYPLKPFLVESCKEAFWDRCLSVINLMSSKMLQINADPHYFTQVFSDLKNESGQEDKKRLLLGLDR
T4 sequence (P50613 whole entry): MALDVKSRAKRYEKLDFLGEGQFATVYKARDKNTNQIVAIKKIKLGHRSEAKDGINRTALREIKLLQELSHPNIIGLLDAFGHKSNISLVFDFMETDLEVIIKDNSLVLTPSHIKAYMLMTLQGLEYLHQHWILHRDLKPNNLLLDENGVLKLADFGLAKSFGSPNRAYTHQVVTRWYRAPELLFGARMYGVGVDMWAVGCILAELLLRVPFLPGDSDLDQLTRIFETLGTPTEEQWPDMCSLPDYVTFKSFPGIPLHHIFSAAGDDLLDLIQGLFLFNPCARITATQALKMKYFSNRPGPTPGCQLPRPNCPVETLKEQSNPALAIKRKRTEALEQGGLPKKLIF
T4 sequence (P51946 whole entry partner): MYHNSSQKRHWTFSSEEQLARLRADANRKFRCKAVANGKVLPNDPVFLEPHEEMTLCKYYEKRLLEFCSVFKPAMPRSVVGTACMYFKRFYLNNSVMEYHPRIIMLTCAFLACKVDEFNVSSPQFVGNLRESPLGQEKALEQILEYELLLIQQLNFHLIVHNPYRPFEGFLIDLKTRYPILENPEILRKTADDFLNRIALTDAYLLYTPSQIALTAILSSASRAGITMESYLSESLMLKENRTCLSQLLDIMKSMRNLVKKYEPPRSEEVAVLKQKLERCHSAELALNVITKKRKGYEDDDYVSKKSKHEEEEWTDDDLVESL
T4 sequence (P51948 whole entry partner): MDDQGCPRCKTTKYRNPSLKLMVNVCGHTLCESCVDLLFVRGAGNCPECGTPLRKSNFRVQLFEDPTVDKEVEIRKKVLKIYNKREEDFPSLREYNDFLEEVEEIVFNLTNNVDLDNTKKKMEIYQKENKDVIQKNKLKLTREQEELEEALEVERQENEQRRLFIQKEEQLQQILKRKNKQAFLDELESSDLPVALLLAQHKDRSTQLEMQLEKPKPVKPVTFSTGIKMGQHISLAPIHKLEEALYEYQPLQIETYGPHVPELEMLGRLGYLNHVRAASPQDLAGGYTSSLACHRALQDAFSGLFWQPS
T1 sequence (P06493 whole entry): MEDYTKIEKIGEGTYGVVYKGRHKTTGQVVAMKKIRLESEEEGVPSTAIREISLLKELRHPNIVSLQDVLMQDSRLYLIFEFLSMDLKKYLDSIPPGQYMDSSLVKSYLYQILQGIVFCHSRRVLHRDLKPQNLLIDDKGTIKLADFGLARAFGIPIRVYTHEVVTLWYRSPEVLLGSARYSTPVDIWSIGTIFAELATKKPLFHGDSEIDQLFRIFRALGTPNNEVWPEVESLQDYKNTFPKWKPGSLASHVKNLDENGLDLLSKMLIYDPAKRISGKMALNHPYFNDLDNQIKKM
T1 sequence (P14635 whole entry partner): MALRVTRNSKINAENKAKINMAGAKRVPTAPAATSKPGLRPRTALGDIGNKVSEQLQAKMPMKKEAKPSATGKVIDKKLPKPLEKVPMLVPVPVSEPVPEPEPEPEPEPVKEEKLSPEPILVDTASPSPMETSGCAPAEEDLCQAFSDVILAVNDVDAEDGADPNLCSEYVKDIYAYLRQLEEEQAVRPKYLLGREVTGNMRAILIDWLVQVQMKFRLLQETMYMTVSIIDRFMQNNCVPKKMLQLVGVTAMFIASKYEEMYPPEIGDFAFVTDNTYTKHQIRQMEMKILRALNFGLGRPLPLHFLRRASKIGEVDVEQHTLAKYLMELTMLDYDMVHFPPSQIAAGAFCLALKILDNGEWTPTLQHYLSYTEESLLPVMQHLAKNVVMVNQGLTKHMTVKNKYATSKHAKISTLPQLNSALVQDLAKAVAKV

SMILES: CC(C)c1cnn2c(NCc3c(Cl)cccc3-n3ccc(N4CCOCC4)n3)nc(N3CCC(N)CC3)nc12 [Compound 202]
- IC50 (CDK1/Cyclin B): > 1 µM
- IC50 (CDK2/Cyclin A): > 1 µM
- IC50 (CDK5/p25): > 1 µM
- CDK1/CDK7: Selectivity of CDK7 inhibition over CDK1 inhibition (CDK7/Cyclin H/MNAT1): A (A=greater than 200 fold)
- CDK2/CDK7: Selectivity of CDK7 inhibition over CDK2 inhibition (CDK7/Cyclin H/MNAT1): A (A=greater than 200 fold)
- CDK5/CDK7: Selectivity of CDK7 inhibition over CDK5 inhibition (CDK7/Cyclin H/MNAT1): A (A=greater than 200 fold)
- IC50 (CDK7/Cyclin H/MNAT1): < 0.1 µM
- IC50 (HCT116): < 1 µM
- IC50 (H460): < 1 µM
- IC50 (MV4-11): < 1 µM

SMILES: CC(C)c1cnn2c(NCc3c(Cl)cccc3-n3cc(N4CCOCC4)cn3)nc(N3CCC(N)CC3)nc12 [Compound 203]
- IC50 (CDK1/Cyclin B): > 1 µM
- IC50 (CDK2/Cyclin A): > 1 µM
- IC50 (CDK5/p25): > 1 µM
- CDK1/CDK7: Selectivity of CDK7 inhibition over CDK1 inhibition (CDK7/Cyclin H/MNAT1): A (A=greater than 200 fold)
- CDK2/CDK7: Selectivity of CDK7 inhibition over CDK2 inhibition (CDK7/Cyclin H/MNAT1): A (A=greater than 200 fold)
- CDK5/CDK7: Selectivity of CDK7 inhibition over CDK5 inhibition (CDK7/Cyclin H/MNAT1): A (A=greater than 200 fold)
- IC50 (CDK7/Cyclin H/MNAT1): < 0.1 µM
- IC50 (HCT116): < 1 µM
- IC50 (H460): < 1 µM
- IC50 (MV4-11): < 1 µM

SMILES: CC1CCN(c2cnn(-c3cccc(Cl)c3CNc3nc(N4CCC(N)CC4)nc4c(C(C)C)cnn34)c2)CC1 [Compound 204]
- IC50 (CDK1/Cyclin B): > 1 µM
- IC50 (CDK2/Cyclin A): > 1 µM
- IC50 (CDK5/p25): > 1 µM
- CDK1/CDK7: Selectivity of CDK7 inhibition over CDK1 inhibition (CDK7/Cyclin H/MNAT1): A (A=greater than 200 fold)
- CDK2/CDK7: Selectivity of CDK7 inhibition over CDK2 inhibition (CDK7/Cyclin H/MNAT1): A (A=greater than 200 fold)
- CDK5/CDK7: Selectivity of CDK7 inhibition over CDK5 inhibition (CDK7/Cyclin H/MNAT1): A (A=greater than 200 fold)
- IC50 (CDK7/Cyclin H/MNAT1): < 0.1 µM
- IC50 (HCT116): < 1 µM
- IC50 (H460): < 1 µM
- IC50 (MV4-11): < 1 µM

SMILES: CC(C)c1cnn2c(NCc3c(Cl)cccc3-n3ccc(C(=O)NC4COC4)n3)nc(N3CCC(N)CC3)nc12 [Compound 205]
- IC50 (CDK1/Cyclin B): > 1 µM
- IC50 (CDK2/Cyclin A): > 1 µM
- IC50 (CDK5/p25): 0.1 to 1 µM
- CDK1/CDK7: Selectivity of CDK7 inhibition over CDK1 inhibition (CDK7/Cyclin H/MNAT1): A (A=greater than 200 fold)
- CDK2/CDK7: Selectivity of CDK7 inhibition over CDK2 inhibition (CDK7/Cyclin H/MNAT1): A (A=greater than 200 fold)
- CDK5/CDK7: Selectivity of CDK7 inhibition over CDK5 inhibition (CDK7/Cyclin H/MNAT1): B (B=less than 200 fold, but greater than 20 fold)
- IC50 (CDK7/Cyclin H/MNAT1): < 0.1 µM
- IC50 (HCT116): < 1 µM
- IC50 (H460): < 1 µM
- IC50 (MV4-11): < 1 µM

SMILES: CC(C)c1cnn2c(NCc3c(Cl)cccc3N3CCOCC3)nc(N3CCC(N)CC3)nc12 [Compound 206]
- IC50 (CDK1/Cyclin B): > 1 µM
- IC50 (CDK2/Cyclin A): > 1 µM
- IC50 (CDK5/p25): 0.1 to 1 µM
- CDK1/CDK7: Selectivity of CDK7 inhibition over CDK1 inhibition (CDK7/Cyclin H/MNAT1): A (A=greater than 200 fold)
- CDK2/CDK7: Selectivity of CDK7 inhibition over CDK2 inhibition (CDK7/Cyclin H/MNAT1): A (A=greater than 200 fold)
- CDK5/CDK7: Selectivity of CDK7 inhibition over CDK5 inhibition (CDK7/Cyclin H/MNAT1): B (B=less than 200 fold, but greater than 20 fold)
- IC50 (CDK7/Cyclin H/MNAT1): < 0.1 µM
- IC50 (HCT116): < 1 µM
- IC50 (H460): < 1 µM
- IC50 (MV4-11): < 1 µM

SMILES: CC(C)c1cnn2c(NCc3c(Cl)cccc3-n3ccc(CO)n3)nc(N3CCC(N)CC3)nc12 [Compound 207]
- IC50 (CDK1/Cyclin B): > 1 µM
- IC50 (CDK2/Cyclin A): > 1 µM
- IC50 (CDK5/p25): 0.1 to 1 µM
- CDK1/CDK7: Selectivity of CDK7 inhibition over CDK1 inhibition (CDK7/Cyclin H/MNAT1): A (A=greater than 200 fold)
- CDK2/CDK7: Selectivity of CDK7 inhibition over CDK2 inhibition (CDK7/Cyclin H/MNAT1): A (A=greater than 200 fold)
- CDK5/CDK7: Selectivity of CDK7 inhibition over CDK5 inhibition (CDK7/Cyclin H/MNAT1): B (B=less than 200 fold, but greater than 20 fold)
- IC50 (CDK7/Cyclin H/MNAT1): < 0.1 µM
- IC50 (HCT116): < 1 µM
- IC50 (H460): < 1 µM
- IC50 (MV4-11): < 1 µM

SMILES: CC(C)c1cnn2c(NCc3ccccc3-c3ccc4ccccc4n3)cc(NCC3(O)CCNCC3)nc12 [Compound 208]
- IC50 (CDK1/Cyclin B): 0.1 to 1 µM
- IC50 (CDK2/Cyclin A): < 0.1 µM
- IC50 (CDK5/p25): 0.1 to 1 µM
- CDK1/CDK7: Selectivity of CDK7 inhibition over CDK1 inhibition (CDK7/Cyclin H/MNAT1): B (B=less than 200 fold, but greater than 20 fold)
- CDK2/CDK7: Selectivity of CDK7 inhibition over CDK2 inhibition (CDK7/Cyclin H/MNAT1): C (C=less than 20 fold)
- CDK5/CDK7: Selectivity of CDK7 inhibition over CDK5 inhibition (CDK7/Cyclin H/MNAT1): B (B=less than 200 fold, but greater than 20 fold)
- IC50 (CDK7/Cyclin H/MNAT1): < 0.1 µM
- IC50 (HCT116): < 1 µM
- IC50 (H460): < 1 µM
- IC50 (MV4-11): < 1 µM

SMILES: CC(C)c1cnn2c(NCc3ccccc3-c3ccc4ccccc4n3)nc(NCC3CCNCC3)nc12 [Compound 209]
- IC50 (CDK1/Cyclin B): > 1 µM
- IC50 (CDK2/Cyclin A): > 1 µM
- IC50 (CDK5/p25): > 1 µM
- CDK1/CDK7: Selectivity of CDK7 inhibition over CDK1 inhibition (CDK7/Cyclin H/MNAT1): A (A=greater than 200 fold)
- CDK2/CDK7: Selectivity of CDK7 inhibition over CDK2 inhibition (CDK7/Cyclin H/MNAT1): A (A=greater than 200 fold)
- CDK5/CDK7: Selectivity of CDK7 inhibition over CDK5 inhibition (CDK7/Cyclin H/MNAT1): A (A=greater than 200 fold)
- IC50 (CDK7/Cyclin H/MNAT1): < 0.1 µM
- IC50 (HCT116): < 1 µM
- IC50 (H460): < 1 µM
- IC50 (MV4-11): < 1 µM

Reference: patent US11945822B2, “Pyrazolo-triazine and/or pyrazolo-pxrimidine derivatives as selective inhibitor of cyclin dependent kinase” (QURIENT CO., LTD., priority 2018, dated 2024)
